The nature of data set [1]: Distribution in rat brain and plasma after single oral dose. In kind it is in vivo, Sprague Dawley rats. To be noted: 100 mg/kg single oral dose; for AUC0-∞: brain. The protocol:
Male and female Sprague Dawley rats were purchased from Beijing Anikeeper Biotech Co, Ltd. Animals were habituated to the environment prior to study initiation. Rats were dosed with single dose of 100 mg/kg crystalline Form 2 via oral gavage. The rats were fasted overnight prior to dosing. Animals had access to food from 2 hours post dose and free access to water throughout the study. Approximately 0.2 mL of blood was sampled via jugular vein at each time point and centrifuged at 4000G for 5 minutes at 4° C. to provide plasma. Samples were then stored in a freezer at −75±15° C. prior to LC-MS/MS analysis. Whole brain was collected after hemoperfusion and snap frozen on dry ice prior to storage at −75±15° C. Prior to LC-MS/MS analysis whole brains were weighed and homogenized with water by tissue weight (g) to water volume (ml) ratio 1:3 before analysis. Actual concentration is the measured value multiplied by the dilution factor. The PK data were described using descriptive statistics such as mean with standard deviation.

Data set [2] is described as follows: Mouse pharmacokinetic study, single oral dose, plasma by LC-MS/MS. The data set is classed as in vivo, female NOD/SCID mice. The settings on record: for AUClast / Cmax / T1/2 / Tmax: 300 mg/kg single oral dose, plasma, 300 mg/kg. The protocol: Mouse pharmacokinetic (PK) studies were conducted using Crystalline Form A of 6-(4-cyclopropyl-6-methoxypyrimidin-5-yl)-1-(4-(1-isopropyl-4-(trifluoromethyl)-1H-imidazol-2-yl)benzyl)-1H-pyrazolo[3,4-d]pyrimidine, as disclosed herein and Crystalline Form 2 of a gentisic acid co-crystal of 6-(4-cyclopropyl-6-methoxypyrimidin-5-yl)-1-(4-(1-isopropyl-4-(trifluoromethyl)-1H-imidazol-2-yl)benzyl)-1H-pyrazolo[3,4-d]pyrimidine, as disclosed herein.
The PK studies consisted of single dose oral exposure studies, which were conducted in female NOD/SCID mice (approximately 6 to 8 weeks, and 20-30 g at the time of study) using a compound dose of 300 mg/kg and a dosing volume of 10 mL/kg. The mice were fasted overnight prior to dosing. Animals had free access to food and water post-dosing.
Blood was sampled serially from the dorsal metatarsal vein at pre-dose, 0.25, 0.5, 1, 2, 4, 8, 24, 48 (crystalline Form 2 only), and 72 hours (crystalline Form 2 only) post PO dosing. Approximately 0.03 mL blood was collected at each time point and centrifuged at 4000 G for 5 minutes at 4° C. to provide plasma. The plasma samples were then stored in a freezer at −75±15° C. prior to LC-MS/MS analysis.
Concentrations of each compound in the plasma samples were then analyzed using an LC-MS/MS method. WinNonlin (Phoenix™, version 6.1) or other similar software was used for PK calculations. The following PK parameters were calculated, whenever possible from the plasma concentration versus time data: Cmax, Tmax, T1/2, AUCinf, and AUClast. The PK data were described using descriptive statistics such as mean with standard deviation.

Data set [3] is described as follows: Distribution in mouse brain and plasma after repeated oral dosing. The data set is classed as in vivo, female NOD SCID mice. The settings on record: 100 or 300 mg/kg oral for 28 days. The protocol: Female NOD SCID mice of an age between 6-8 weeks and a body weight range of 18-22 g were purchased from Beijing Anikeeper Biotech Co, Ltd. Animals were habituated to the environment for at least 7 days prior to study initiation. Mice were dosed with Crystalline Form 2 at either 100 mg/kg or 300 mg/kg dose levels via oral gavage for 28 days. After 24 hours following 27 doses of compound, three mice were euthanized via CO2. After four hours following 28 doses of compound, three mice were euthanized via CO2. At each time point the whole brain was collected. In addition, approximately 0.03 mL of blood was collected at each time point and centrifuged at 4000G for 5 minutes at 4° C. to provide plasma. Samples were then stored in a freezer at −75±15° C. prior to LC-MS/MS analysis. Concentrations of compound in brain homogenates (ng/g) and plasma (ng/ml) were then analyzed using an LC-MS/MS method. The PK data were described using descriptive statistics such as mean with standard deviation.

The structures appear in SMILES notation.

Broadly, the Cmax is the maximum level reached in the sampled fluid or tissue. For orientation: Tmax means the time at which the peak concentration occurs. For the molecule `COc1ncnc(C2CC2)c1-c1ncc2cnn(Cc3ccc(-c4nc(C(F)(F)F)cn4C(C)C)cc3)c2n1` [Crystalline Form 2, 6-(4-cyclopropyl-6-methoxypyrimidin-5-yl)-1-(4-(1-isopropyl-4-(trifluoromethyl)-1H-imidazol-2-yl)benzyl)-1H-pyrazolo[3,4-d]pyrimidine], the “drug level in the brain tissue” value in data set [1] (male and female rats) is given as “measurable drug level”; in data set [3] it was “measurable drug level”. Besides, the entries for the “AUC0-∞” value in data set [1] (Female rats) and in data set [1] (Male rats) were 120933 ng·h/g and 60596 ng·h/g, respectively. Further, the AUClast in data set [2] (Mean) turned out to be 752.45 µg·h/mL; in data set [2] (Mouse 7) it was 827.348 µg·h/mL; in data set [2] (Mouse 8), 835.713 µg·h/mL; in data set [2] (Mouse 9), 594.288 µg·h/mL. For the same molecule, the Cmax is given as 28900 ng/mL in data set [2] (Mean), 28800 ng/mL in data set [2] (Mouse 7), 28900 ng/mL in data set [2] (Mouse 8) and 29000 ng/mL in data set [2] (Mouse 9). The T1/2 in data set [2] (Mean) came out at 4.17 h; in data set [2] (Mouse 8), 4.22 h; in data set [2] (Mouse 9), 4.27 h. Besides, the Tmax in data set [2] (Mean) is listed as 10.7 h; in data set [2] (Mouse 8) it was 12.0 h; in data set [2] (Mouse 9) it was 12.0 h. In addition, the “mouse oral exposure levels compared to crystalline Form A (freebase)” value in data set [2] (about 300 mg/kg) is “higher exposure levels”. Besides, the “accumulation of the drug in the brain after repeated dosing” value in data set [3] is on record as “no apparent accumulation”.

Take `COc1ncnc(C2CC2)c1-c1ncc2cnn(Cc3ccc(-c4nc(C(F)(F)F)cn4C(C)C)cc3)c2n1` [Crystalline Form A, 6-(4-cyclopropyl-6-methoxypyrimidin-5-yl)-1-(4-(1-isopropyl-4-(trifluoromethyl)-1H-imidazol-2-yl)benzyl)-1H-pyrazolo[3,4-d]pyrimidine]: in data set [2] (Mean), the AUClast was determined as 60.663 µg·h/mL, the Cmax is reported as 3697 ng/mL, the T1/2 stood at 12.7 h and the Tmax is recorded as 5.33 h. In data set [2] (Mouse 7), the AUClast was 72.653 µg·h/mL and the peak concentration (Cmax) is listed as 4450 ng/mL. In addition, in data set [2] (Mouse 8), the AUClast was 40.678 µg·h/mL, the Cmax worked out at 2890 ng/mL and the Tmax was 4.00 h. Further, in data set [2] (Mouse 9), the AUClast was 68.658 µg·h/mL, the Cmax was determined as 3750 ng/mL, the T1/2 was 18.6 h and the Tmax came out at 4.00 h.
